Data published in BigSolDB 2.1.

O=C(Nc1ccc(F)cc1F)c1cccnc1Oc1cccc(C(F)(F)F)c1
solubility (mole fraction)
Conditions	278.15 K	283.15 K	288.15 K	293.15 K	298.15 K	303.15 K	308.15 K	313.15 K	318.15 K	323.15 K
in DMF	0.000523	0.000679	0.000847	0.00104	0.00127	0.00153	0.00182	0.00213	0.00255	0.00298
in ethanol	0.000244	0.000319	0.000425	0.000537	0.000683	0.000901	0.00111	0.00142	0.00176	0.00216
in ethylene glycol	1.42e-05	1.76e-05	2.25e-05	2.71e-05	3.28e-05	3.89e-05	4.62e-05	5.41e-05	6.34e-05	7.49e-05
in propylene glycol	4.63e-05	5.76e-05	7.29e-05	9.02e-05	0.000108	0.000129	0.000152	0.00018	0.000209	0.000245
in water	1.45e-07	2.02e-07	2.68e-07	3.33e-07	4.08e-07	4.98e-07	6.05e-07	7.25e-07	8.72e-07	1.04e-06
